{
  "source": "paper PMC10117049",
  "about": "“RND Pump-Mediated Efflux of Amotosalen, a Compound Used in Pathogen Inactivation Technology to Enhance Safety of Blood Transfusion Products, May Compromise Its Gram-Negative Anti-Bacterial Activity” (mSphere, 2023)",
  "key": {"[1]": {"tested_on": "Burkholderia cenocepacia", "assay": "microbe, parasite or virus in culture", "design": "Broth microdilution MIC in 384-well plates after UVA exposure (2 J/cm2), A600 growth read-out", "details": "Burkholderia cenocepacia, 20 h, MDRb=Unknown, UVA 365 nm, 2 J/cm2, modal MIC of three or more replicates", "method": "(§1) For MIC determination, bacterial stocks frozen at −80°C were streaked onto tryptic soy agar plates containing 5% sheep blood (Remel), and grown overnight at 35°C in ambient air. Colonies were then suspended in 0.9% saline to 0.5 McFarland, measured using a Densicheck (bioMérieux); diluted 1:300 in cation-adjusted Mueller-Hinton broth (BD); and dispensed into 384-well polystyrene plates (Greiner Bio-One) at 50 μL per well with the following exceptions: For MIC determinations with AG100AX strains containing pAdeC and pAdeAB plasmids, −80°C frozen stocks were inoculated directly into non-cation-adjusted Mueller-Hinton broth containing 100 μg/mL ampicillin, 50 μg/mL nourseothricin, 5 mM calcium chloride, and 5 mM magnesium chloride, with or without adeABC induction using 1% L-arabinose and 1.0 mM Isopropyl β-D-1-thiogalactopyranoside (IPTG), and grown overnight at 37°C in 15 mL conical tubes with continual rotation. Bacterial cultures were then adjusted to 0.5 McFarland and diluted 1:300 in the same medium, and dispensed as above. Induction of other cloned efflux pumps was with 1% L-arabinose (or 0.5% L-arabinose for cloned P. aeruginosa pumps) in the absence of supplemental divalent cations. Lastly, P. aeruginosa PAO1 strains were dispensed into 96-well plates to avoid skipped-well effects observed in 384-well plate format. Filled microplates were centrifuged at 1250 rcf for 4 min to ensure the entire inoculum was in continuity with the bottom of the well. Then, 2-fold doubling dilutions of stock solutions of amotosalen, AMT, or 8-MOP supplemented with 0.3% Tween 20 (Sigma-Aldrich) were dispensed into microwells using the HP D300 digital dispensing system (HP, Inc.), as previously described ([87][–][90]), and the microplates were mixed for 5 min on a microplate shaker to ensure complete mixing of psoralens with the inoculum. Microplates were then exposed to UV light in a UV Stratalinker 1800 (Stratagene), retrofitted with UV BL F8T5 CFL 12-inch UVA 365 nm Blacklight Bulbs (Coolspider), and calibrated according to manufacturer’s instructions with an UVA365 UV Light Meter (Amtast) for a total exposure of 2 Joules/cm^2 of UVA, to approximate exposure during platelet pathogen inactivation ([10]). Testing of control antibiotics was performed in an identical fashion, however, without UVA exposure. After incubation at 35°C for 20 h, the A600 was measured using a TECAN M1000 microplate reader. MICs were determined based on a growth inhibition A600 cutoff of 0.06, which is consistent with our prior determinations of Clinical and Laboratory Standards Institute reference standard equivalent, MIC determinations in 384-well plate format ([88], [90], [91]). […] The concentrations of MgCl2 and CaCl2 used were empirically determined previously to be optimal for efflux of minocycline and ethidium bromide (data not shown)."}, "[2]": {"tested_on": "A. baumannii", "assay": "microbe, parasite or virus in culture", "design": "Broth microdilution MIC in 384-well plates after UVA exposure (2 J/cm2), A600 growth read-out", "details": "Acinetobacter baumannii, 20 h, MDRb=Yes, UVA 365 nm, 2 J/cm2, modal MIC of three or more replicates", "method": "as §1"}, "[3]": {"tested_on": "P. aeruginosa", "assay": "microbe, parasite or virus in culture", "design": "Broth microdilution MIC in 384-well plates after UVA exposure (2 J/cm2), A600 growth read-out", "details": "Pseudomonas aeruginosa, 20 h, UVA 365 nm, 2 J/cm2, modal MIC of three or more replicates", "method": "as §1"}, "[4]": {"tested_on": "Burkholderia cepacia", "assay": "microbe, parasite or virus in culture", "design": "Broth microdilution MIC in 384-well plates after UVA exposure (2 J/cm2), A600 growth read-out", "details": "Burkholderia cepacia, 20 h, read-out: Amotosalen Modal MIC (mM)a, Strain #=BEI NR-702; MDRb=Unknown; UVA 365 nm, 2 J/cm2; modal MIC of three or more replicates", "method": "as §1"}, "[5]": {"tested_on": "Burkholderia multivorans", "assay": "microbe, parasite or virus in culture", "design": "Broth microdilution MIC in 384-well plates after UVA exposure (2 J/cm2), A600 growth read-out", "details": "Burkholderia multivorans, 20 h, read-out: Amotosalen Modal MIC (mM)a, Strain #=BEI NR-20533; MDRb=Unknown; UVA 365 nm, 2 J/cm2; modal MIC of three or more replicates", "method": "as §1"}, "[6]": {"tested_on": "K. pneumoniae", "assay": "microbe, parasite or virus in culture", "design": "Broth microdilution MIC in 384-well plates after UVA exposure (2 J/cm2), A600 growth read-out", "details": "Klebsiella pneumoniae, 20 h, MDRb=Yes, UVA 365 nm, 2 J/cm2, modal MIC of three or more replicates", "method": "as §1"}, "[7]": {"tested_on": "Stenotrophomonas maltophilia", "assay": "microbe, parasite or virus in culture", "design": "Broth microdilution MIC in 384-well plates after UVA exposure (2 J/cm2), A600 growth read-out", "details": "Stenotrophomonas maltophilia, 20 h, UVA 365 nm, 2 J/cm2, modal MIC of three or more replicates", "method": "as §1"}, "[8]": {"tested_on": "E. coli", "assay": "microbe, parasite or virus in culture", "design": "Broth microdilution MIC in 384-well plates after UVA exposure (2 J/cm2), A600 growth read-out", "details": "Escherichia coli, 20 h, UVA 365 nm, 2 J/cm2, modal MIC of three or more replicates", "method": "as §1"}, "[9]": {"target": "AdeB (Acinetobacter baumannii, UniProt Q2FD70)", "sequence (Q2FD70 entry or part of it)": "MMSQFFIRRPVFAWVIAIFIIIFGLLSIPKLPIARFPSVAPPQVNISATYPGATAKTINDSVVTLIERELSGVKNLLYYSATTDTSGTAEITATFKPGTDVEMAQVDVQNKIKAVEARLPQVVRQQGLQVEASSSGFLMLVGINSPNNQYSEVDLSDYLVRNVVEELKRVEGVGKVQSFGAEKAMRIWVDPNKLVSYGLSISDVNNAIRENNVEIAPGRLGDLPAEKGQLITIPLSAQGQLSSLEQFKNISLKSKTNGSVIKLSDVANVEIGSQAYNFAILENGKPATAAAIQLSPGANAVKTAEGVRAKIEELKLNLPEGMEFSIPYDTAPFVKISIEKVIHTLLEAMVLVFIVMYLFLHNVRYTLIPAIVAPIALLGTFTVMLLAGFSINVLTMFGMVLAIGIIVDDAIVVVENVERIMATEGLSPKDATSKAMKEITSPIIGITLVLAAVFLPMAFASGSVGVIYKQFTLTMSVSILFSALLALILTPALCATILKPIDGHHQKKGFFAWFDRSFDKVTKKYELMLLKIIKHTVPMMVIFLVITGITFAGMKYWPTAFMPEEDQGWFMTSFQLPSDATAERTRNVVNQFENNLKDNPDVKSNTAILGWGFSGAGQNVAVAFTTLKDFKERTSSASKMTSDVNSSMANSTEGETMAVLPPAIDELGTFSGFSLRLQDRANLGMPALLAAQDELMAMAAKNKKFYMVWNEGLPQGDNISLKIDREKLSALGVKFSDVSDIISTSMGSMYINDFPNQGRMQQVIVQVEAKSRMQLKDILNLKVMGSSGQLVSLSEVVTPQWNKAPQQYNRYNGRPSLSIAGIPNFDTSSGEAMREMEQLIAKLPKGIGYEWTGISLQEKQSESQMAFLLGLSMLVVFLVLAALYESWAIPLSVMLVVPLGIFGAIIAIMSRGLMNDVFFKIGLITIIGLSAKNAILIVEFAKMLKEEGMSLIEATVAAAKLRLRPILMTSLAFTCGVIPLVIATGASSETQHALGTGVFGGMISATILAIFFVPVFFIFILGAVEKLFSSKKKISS", "assay": "fluorescence polarization titration using the inherent fluorescence of amotosalen ([…])", "assay_type": "binding"}},
  "note": "Like-named read-outs stand apart in the source and are kept apart here.",
  "data": [
    {"compound": "Cc1oc2c(C)c3oc(=O)cc(C)c3cc2c1COCCN", "note": "[amotosalen, 4′-(4-amino-2-oxa)butyl-4,5′,8-trimethylpsoralen]", "values": [
      {"measurement": "MIC", "setting": "[1]; read-out: Amotosalen Modal MIC (mM)a, Strain #=BEI NR-701", "result": 0.128, "unit": "mM"},
      {"measurement": "MIC", "setting": "[1]; read-out: Amotosalen Modal MIC (mM)a, Strain #=BEI NR-20535", "result": 0.256, "unit": "mM"},
      {"measurement": "MIC", "setting": "[2]; read-out: Amotosalen Modal MIC (mM)a, Strain #=FDA-CDC 0292", "result": 0.064, "unit": "mM"},
      {"measurement": "MIC", "setting": "[2]; read-out: Amotosalen Modal MIC (mM)a, Strain #=WRAIR 15067", "result": 0.128, "unit": "mM"},
      {"measurement": "MIC", "setting": "[3]; read-out: Amotosalen Modal MIC (mM)a, Strain #=ATCC 27583e, MDRb=No", "result": "< 0.004", "unit": "mM"},
      {"measurement": "MIC", "setting": "[3]; read-out: Amotosalen Modal MIC (mM)a, Strain #=FDA-CDC 229, MDRb=Yes", "result": "> 0.256", "unit": "mM"},
      {"measurement": "MIC", "setting": "[3]; read-out: Amotosalen Modal MIC (mM)a, Strain #=FDA-CDC 230, MDRb=Yes", "result": 0.128, "unit": "mM"},
      {"measurement": "MIC", "setting": "[3]; read-out: Amotosalen Modal MIC (mM)a, Strain #=FDA-CDC 232, MDRb=Yes", "result": 0.256, "unit": "mM"},
      {"measurement": "MIC", "setting": "[4]", "result": "> 0.256", "unit": "mM"},
      {"measurement": "MIC", "setting": "[5]", "result": "> 0.256", "unit": "mM"},
      {"measurement": "MIC", "setting": "[6]; read-out: Amotosalen Modal MIC (mM)a, Strain #=FDA-CDC 0113", "result": 0.128, "unit": "mM"},
      {"measurement": "MIC", "setting": "[6]; read-out: Amotosalen Modal MIC (mM)a, Strain #=FDA-CDC 0146", "result": 0.256, "unit": "mM"},
      {"measurement": "MIC", "setting": "[7]; read-out: Amotosalen Modal MIC (mM)a, Strain #=JEK154", "result": 0.256, "unit": "mM"},
      {"measurement": "MIC", "setting": "[7]; read-out: Amotosalen Modal MIC (mM)a, Strain #=JEK155", "result": 0.064, "unit": "mM"},
      {"measurement": "MIC", "setting": "[8]; read-out: Amotosalen Modal MIC (mM)a, Strain #=ATCC 25922e, MDRb=No", "result": 0.008, "unit": "mM"},
      {"measurement": "MIC", "setting": "[8]; read-out: Amotosalen Modal MIC (mM)a, Strain #=FDA-CDC 0114, MDRb=Yes", "result": 0.128, "unit": "mM"},
      {"measurement": "MIC", "setting": "[8]; read-out: Amotosalen Modal MIC (mM)a, Strain #=FDA-CDC 0118, MDRb=Yes", "result": 0.064, "unit": "mM"},
      {"measurement": "Kd", "setting": "[9]", "result": "27.9 ± 1.8", "unit": "µM"}
    ]}
  ]
}
